Test results from patent publication US20120064174A1, “METHOD FOR STIMULATING HAIR GROWTH” (LEGACY HEALTHCARE HOLDING LTD., priority 2010, published 2012).
Several values for one entry are separate records, joined by “and”; a condition that tells them apart may be missing. Identical values can stand only once.

System: scalp of male volunteers
Assay: Double-blind placebo-controlled clinical study, hair diameter measurement by hair clipping
Type: in vivo, human
Details: after 32-51 days of treatment, one volunteer per row
Procedure: […] The male volunteers had been under treatment of a 5-alpha-reductase inhibitor treatment (Finasteride 1 mg) started within the last 3 months, or for the last three years. The first objective is to assess if the hair diameter of volunteers under a 5-alpha-reductase inhibitor (Finasteride 1 mg) and Cellium (TRADEMARK) GC 210 mg/mL is higher than on volunteers under a 5-alpha-reductase inhibitor (Finasteride 1 mg) and placebo only. The hair diameters were compared using a starting or initial hair diameter measurement and a post-study hair diameter measurement as quantified later herein. The second objective is to evaluate the cosmetic acceptance in the studied population. A prospective, double-blind, monocentric, randomized testing along with a placebo testing is conducted with two parallel groups. […] Information on self-assessed effectiveness, appreciation, and overall satisfaction was solicited from volunteers using a questionnaire. […] Exemplary secondary criteria include photographic documentation for qualitative purposes and also self-assessed effectiveness, appreciation, and overall satisfaction as indicated by a questionnaire given to participants. […]

Compound: CC(C)(C)NC(=O)[C@H]1CC[C@H]2[C@@H]3CC[C@H]4NC(=O)C=C[C@]4(C)[C@H]3CC[C@]12C [Finasteride + Placebo, Finasteride]
- Variation of diameter (in %) (relative to first diameter): 4.4% and −0.7% and −2.4%
- Variation of diameter (μm) (second minus first diameter): 2.2 μm and −0.3 μm and −1.2 μm
